Tested on: high-risk infants
Design: species or system human
Conditions: in vivo
From the text: High-risk infants were identified using parental history of atopic disease and were randomized to either the skin treatment regimen and composition or standard routine care, each set forth below, from soon after recruitment in the postnatal ward (approximately 4 day) until eight weeks of age. Both the intervention and standard of care groups were advised to use a standardized bathing routine for the first 2 months. • Skin treatment regimen and composition: twice daily whole-body application of […] & Long-Lasting Balm, which on pack contains the following ingredients: glycerin, aqua, cetearyl alcohol, isocetyl alcohol, dimethicone, cetyl alcohol, Avena sativa kernel flour, Avena sativa kernel extract, Avena sativa kernel oil, caprylic/capric triglyceride, ceramide 3, ethylhexylglycerin, p-anisic acid, sodium cetearyl sulfate, palmitic acid, stearic acid, sodium sulfate, sodium chloride, citric acid, dipotassium phosphate, potassium phosphate, sodium hydroxide, tocopherol, benzyl alcohol, benzoic acid, and potassium sorbate. • Control: Standard routine care, which involves no use of moisturizer for the first two months. Within approximately 4 days of birth, infants were randomized to either treatment with skin treatment regimen and composition or to standard routine skincare with no moisturizer until 2 months of age. […]

Substance: AVEENO® Dermexa Fast & Long-Lasting Balm [Intervention]
- Infants advised to stop applying the emollient after developing a rash with a potential temporal relationship with the emollient: One
- Parent-reported skin infections: 5%

Source: patent US12138286B2, “Combination method for treating or preventing childhood atopic disease” (Johnson & Johnson Consumer Inc., priority 2022, dated 2024)
